Measurements published in PubChem BioAssay AID1259407 (Chemical Carcinogenesis Research Information System (CCRIS), 2018).
Activity calls are given as the source filed them. The rule behind the calls is not given here.

Test system: CCRIS mutagenicity, Ames/micronucleus/aberration tests
Assay: CCRIS mutagenicity studies
[1] = Test System: AMES SALMONELLA TYPHIMURIUM, Strain/Indicator: TA98, Metabolic Activation: NONE, Method: STANDARD PLATE
[2] = Test System: AMES SALMONELLA TYPHIMURIUM, Strain/Indicator: TA98, Metabolic Activation: RAT, LIVER, S-9, AROCLOR 1254, Method: STANDARD PLATE
[3] = Test System: AMES SALMONELLA TYPHIMURIUM, Strain/Indicator: TA100, Metabolic Activation: NONE, Method: STANDARD PLATE
[4] = Test System: AMES SALMONELLA TYPHIMURIUM, Strain/Indicator: TA100, Metabolic Activation: RAT, LIVER, S-9, AROCLOR 1254, Method: STANDARD PLATE
[5] = Test System: AMES SALMONELLA TYPHIMURIUM, Strain/Indicator: TA1535, Metabolic Activation: NONE, Method: STANDARD PLATE
[6] = Test System: AMES SALMONELLA TYPHIMURIUM, Strain/Indicator: TA1535, Metabolic Activation: RAT, LIVER, S-9, AROCLOR 1254, Method: STANDARD PLATE
[7] = Test System: AMES SALMONELLA TYPHIMURIUM, Strain/Indicator: TA1537, Metabolic Activation: NONE, Method: STANDARD PLATE
[8] = Test System: AMES SALMONELLA TYPHIMURIUM, Strain/Indicator: TA1537, Metabolic Activation: RAT, LIVER, S-9, AROCLOR 1254, Method: STANDARD PLATE
[9] = Test System: AMES SALMONELLA TYPHIMURIUM, Strain/Indicator: TA1538, Metabolic Activation: NONE, Method: STANDARD PLATE
[10] = Test System: AMES SALMONELLA TYPHIMURIUM, Strain/Indicator: TA98, Metabolic Activation: NONE, Method: PREINCUBATION
[11] = Test System: AMES SALMONELLA TYPHIMURIUM, Strain/Indicator: TA100, Metabolic Activation: NONE, Method: PREINCUBATION
[12] = Test System: AMES SALMONELLA TYPHIMURIUM, Strain/Indicator: TA1535, Metabolic Activation: NONE, Method: PREINCUBATION
[13] = Test System: AMES SALMONELLA TYPHIMURIUM, Strain/Indicator: TA1537, Metabolic Activation: NONE, Method: PREINCUBATION
[14] = Test System: AMES SALMONELLA TYPHIMURIUM, Strain/Indicator: TA102, Metabolic Activation: NONE, Method: STANDARD PLATE
[15] = Test System: AMES SALMONELLA TYPHIMURIUM, Strain/Indicator: TA102, Metabolic Activation: RAT, LIVER, S-9, AROCLOR 1254, Method: STANDARD PLATE

Row | SMILES | mutagenic call [1] | mutagenic call [2] | mutagenic call [3] | mutagenic call [4] | mutagenic call [5] | mutagenic call [6] | mutagenic call [7] | mutagenic call [8] | mutagenic call [9] | mutagenic call [10] | mutagenic call [11] | mutagenic call [12] | mutagenic call [13] | mutagenic call [14] | mutagenic call [15] | further results
1 | O=C(CCCN1CCN(c2ccccn2)CC1)c1ccc(F)cc1 | inactive; negative | inactive; negative | inactive; negative | inactive; negative | inactive; negative | inactive; negative | inactive; negative | inactive; negative | inactive; negative |  |  |  |  |  |  | mutagenic call (Test System: AMES SALMONELLA TYPHIMURIUM, Strain/Indicator: TA98, Metabolic Activation: MOUSE, LIVER, S-9, PHENOBARBITAL, Method: STANDARD PLATE): inactive; negative; mutagenic call (Test System: AMES SALMONELLA TYPHIMURIUM, Strain/Indicator: TA98, Metabolic Activation: RAT, LIVER, S-9, AROCLOR 1254, Method: PREINCUBATION): inactive; negative; mutagenic call (Test System: AMES SALMONELLA TYPHIMURIUM, Strain/Indicator: TA1530, Metabolic Activation: NONE, Method: STANDARD PLATE): inactive; negative; mutagenic call (Test System: AMES SALMONELLA TYPHIMURIUM, Strain/Indicator: TA1530, Metabolic Activation: RAT, LIVER, S-9, AROCLOR 1254, Method: STANDARD PLATE): inactive; negative; mutagenic call (Test System: AMES SALMONELLA TYPHIMURIUM, Strain/Indicator: TA1538, Metabolic Activation: RAT, LIVER, S-9, AROCLOR 1254, Method: STANDARD PLATE): inactive; negative
2 | COC1=CC=CC=CC1 | inactive; negative |  | inactive; negative |  | inactive; negative |  |  |  | active; positive | inactive; negative | inactive; negative | inactive; negative | inactive; negative |  |  | mutagenic call (Test System: AMES SALMONELLA TYPHIMURIUM, Strain/Indicator: TA98, Metabolic Activation: RAT, LIVER, S-9, Method: PREINCUBATION): inactive; negative; mutagenic call (Test System: AMES SALMONELLA TYPHIMURIUM, Strain/Indicator: TA98, Metabolic Activation: RAT, LIVER, S-9, Method: STANDARD PLATE): inactive; negative; mutagenic call (Test System: AMES SALMONELLA TYPHIMURIUM, Strain/Indicator: TA100, Metabolic Activation: RAT, LIVER, S-9, Method: PREINCUBATION): inactive; negative; mutagenic call (Test System: AMES SALMONELLA TYPHIMURIUM, Strain/Indicator: TA100, Metabolic Activation: RAT, LIVER, S-9, Method: STANDARD PLATE): inactive; negative; mutagenic call (Test System: AMES SALMONELLA TYPHIMURIUM, Strain/Indicator: TA1535, Metabolic Activation: RAT, LIVER, S-9, Method: PREINCUBATION): inactive; negative; mutagenic call (Test System: AMES SALMONELLA TYPHIMURIUM, Strain/Indicator: TA1535, Metabolic Activation: RAT, LIVER, S-9, Method: STANDARD PLATE): inactive; negative; mutagenic call (Test System: AMES SALMONELLA TYPHIMURIUM, Strain/Indicator: TA1537, Metabolic Activation: RAT, LIVER, S-9, Method: PREINCUBATION): inactive; negative; mutagenic call (Test System: AMES SALMONELLA TYPHIMURIUM, Strain/Indicator: TA1538, Metabolic Activation: NONE, Method: PREINCUBATION): inactive; negative; mutagenic call (Test System: AMES SALMONELLA TYPHIMURIUM, Strain/Indicator: TA1538, Metabolic Activation: RAT, LIVER, S-9, Method: PREINCUBATION): inactive; negative; mutagenic call (Test System: AMES SALMONELLA TYPHIMURIUM, Strain/Indicator: TA1538, Metabolic Activation: RAT, LIVER, S-9, Method: STANDARD PLATE): active; positive; mutagenic call (Test System: CHINESE HAMSTER V-79, Strain/Indicator: V-79/8-AZAGUANINE (HGPRT), Metabolic Activation: NONE, Method: STANDARD PLATE): active; positive; mutagenic call (Test System: CHINESE HAMSTER V-79, Strain/Indicator: V-79/8-AZAGUANINE (HGPRT), Metabolic Activation: RAT, LIVER, S-9, Method: STANDARD PLATE): active; positive; mutagenic call (Test System: MOUSE LYMPHOMA, Strain/Indicator: L5178Y (TK+/TK-), Metabolic Activation: NONE): inactive; negative; mutagenic call (Test System: MOUSE LYMPHOMA, Strain/Indicator: L5178Y (TK+/TK-), Metabolic Activation: RAT, LIVER, S-9): active; positive; mutagenic call (Test System: MOUSE LYMPHOMA, Strain/Indicator: L5178Y (TK+/TK-), Metabolic Activation: RAT, LIVER, S-9, AROCLOR 1254): active; positive
3 | C=CC[N+](C)(C)CC=C |  |  |  |  |  |  |  |  |  | inactive; negative | inactive; negative | inactive; negative | inactive; negative |  |  | mutagenic call (Test System: AMES SALMONELLA TYPHIMURIUM, Strain/Indicator: TA98, Metabolic Activation: RAT LIVER S-9, PHENOBARBITAL AND BETA-NAPHTHOFLAVONE, Method: PREINCUBATION): inactive; negative; mutagenic call (Test System: AMES SALMONELLA TYPHIMURIUM, Strain/Indicator: TA100, Metabolic Activation: RAT LIVER S-9, PHENOBARBITAL AND BETA-NAPHTHOFLAVONE, Method: PREINCUBATION): inactive; negative; mutagenic call (Test System: AMES SALMONELLA TYPHIMURIUM, Strain/Indicator: TA1535, Metabolic Activation: RAT LIVER S-9, PHENOBARBITAL AND BETA-NAPHTHOFLAVONE, Method: PREINCUBATION): inactive; negative; mutagenic call (Test System: AMES SALMONELLA TYPHIMURIUM, Strain/Indicator: TA1537, Metabolic Activation: RAT LIVER S-9, PHENOBARBITAL AND BETA-NAPHTHOFLAVONE, Method: PREINCUBATION): inactive; negative; mutagenic call (Test System: E.COLI, Strain/Indicator: WP2UVRA/PKM101, Metabolic Activation: NONE, Method: PREINCUBATION): inactive; negative; mutagenic call (Test System: E.COLI, Strain/Indicator: WP2UVRA/PKM101, Metabolic Activation: RAT LIVER S-9, PHENOBARBITAL AND BETA-NAPHTHOFLAVONE, Method: PREINCUBATION): inactive; negative
4 | Cc1cc2nc3ccc(=[N+](C)C)cc-3sc2cc1N | inactive; negative | active; positive | inactive; negative | active; positive |  |  |  |  |  |  |  |  |  | inactive; negative | active; positive | mutagenic call (Test System: AMES SALMONELLA TYPHIMURIUM, Strain/Indicator: TA97A, Metabolic Activation: NONE, Method: STANDARD PLATE): active; positive; mutagenic call (Test System: AMES SALMONELLA TYPHIMURIUM, Strain/Indicator: TA97A, Metabolic Activation: RAT, LIVER, S-9, AROCLOR 1254, Method: STANDARD PLATE): active; positive
5 | CN(C)C(=O)c1nc2n(n1)-c1ccc(Cl)cc1C(c1ccccc1Cl)=NC2 | inactive; negative | inactive; negative | inactive; negative | inactive; negative | inactive; negative | inactive; negative | inactive; negative | inactive; negative |  |  |  |  |  | inactive; negative | inactive; negative | mutagenic call (Test System: E. COLI, Strain/Indicator: WP2 UVRA, Metabolic Activation: NONE, Method: STANDARD PLATE): inactive; negative; mutagenic call (Test System: E. COLI, Strain/Indicator: WP2 UVRA, Metabolic Activation: RAT, LIVER, S-9, AROCLOR 1254, Method: STANDARD PLATE): inactive; negative
